Reference: PubChem BioAssay AID2060600 (Molecular Pharmacology Branch, DTP, NCI, 2025)

Test system: 996289-038-R-J1-PDC complex spheroid viability
Assay: Anticancer human tumor 996289-038-R-J1-PDC patient-derived colon adenocarcinoma cell line growth inhibition [CLK]
Settings: for IC50: curve of first compound; for viability, T/C: stronger effect = lower value
Method in brief: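 Multi-cell-type spheroids combined patient-derived tumor cells with HUVEC endothelial cells and human mesenchymal stem cells. Paired agents were dosed in half-log steps down from about clinical Cmax, or from 10 microM where Cmax was unknown.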

[1] = second compound 0.0316 µM, first compound 0.0316 µM
[2] = second compound 0.0316 µM, first compound 0.1 µM
[3] = second compound 0.0316 µM, first compound 0.316 µM
[4] = second compound 0.0316 µM, first compound 1 µM
[5] = second compound 0.0316 µM, first compound 3.16 µM
[6] = second compound 0.0316 µM, first compound 10 µM
[7] = second compound 0.1 µM, first compound 0.0316 µM
[8] = second compound 0.1 µM, first compound 0.1 µM
[9] = second compound 0.1 µM, first compound 0.316 µM
[10] = second compound 0.1 µM, first compound 1 µM
[11] = second compound 0.1 µM, first compound 3.16 µM
[12] = second compound 0.1 µM, first compound 10 µM
[13] = second compound 0.316 µM, first compound 0.0316 µM
[14] = second compound 0.316 µM, first compound 0.1 µM
[15] = second compound 0.316 µM, first compound 0.316 µM
[16] = second compound 0.316 µM, first compound 1 µM
[17] = second compound 0.316 µM, first compound 3.16 µM
[18] = second compound 0.316 µM, first compound 10 µM
[19] = second compound 1 µM, first compound 0.0316 µM
[20] = second compound 1 µM, first compound 0.1 µM
[21] = second compound 1 µM, first compound 0.316 µM
[22] = second compound 1 µM, first compound 1 µM
[23] = second compound 1 µM, first compound 3.16 µM
[24] = second compound 1 µM, first compound 10 µM
[25] = second compound 3.16 µM, first compound 0.0316 µM
[26] = second compound 3.16 µM, first compound 0.1 µM
[27] = second compound 3.16 µM, first compound 0.316 µM
[28] = second compound 3.16 µM, first compound 1 µM
[29] = second compound 3.16 µM, first compound 3.16 µM
[30] = second compound 3.16 µM, first compound 10 µM
[31] = second compound 10 µM, first compound 0.0316 µM
[32] = second compound 10 µM, first compound 0.1 µM
[33] = second compound 10 µM, first compound 0.316 µM
[34] = second compound 10 µM, first compound 1 µM
[35] = second compound 10 µM, first compound 3.16 µM
[36] = second compound 10 µM, first compound 10 µM
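Note: spheroids exposed to the agents for 7 days before readout.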

CC(C)CC(NC(=O)C(Cc1ccccc1)NC(=O)c1cnccn1)B(O)O (stereo unspecified) + CN1CCN(c2cc(C(=O)Nc3cc4cc(-c5cnn(C)c5)ccc4cn3)ccn2)CC1
IC50 (second compound 0.0316 µM): 0.00469 µM | IC50 (second compound 0.1 µM): 0.0039 µM | IC50 (second compound 0.316 µM): 0.00203 µM | IC50 (second compound 1 µM): < 0.000949 µM | IC50 (second compound 3.16 µM): < 0.000949 µM | IC50 (second compound 10 µM): < 0.000949 µM | viability, T/C (second compound 0.0316 µM, first compound 0.000949 µM): 119% | viability, T/C (second compound 0.0316 µM, first compound 0.003 µM): 77.7% | viability, T/C (second compound 0.0316 µM, first compound 0.00949 µM): 6.22% | viability, T/C (second compound 0.0316 µM, first compound 0.03 µM): 4.45% | viability, T/C (second compound 0.0316 µM, first compound 0.0949 µM): 2.91% | viability, T/C (second compound 0.0316 µM, first compound 0.3 µM): 0.26% | viability, T/C (second compound 0.1 µM, first compound 0.000949 µM): 97.5% | viability, T/C (second compound 0.1 µM, first compound 0.003 µM): 62.8% | viability, T/C (second compound 0.1 µM, first compound 0.00949 µM): 6.36% | viability, T/C (second compound 0.1 µM, first compound 0.03 µM): 0.64% | viability, T/C (second compound 0.1 µM, first compound 0.0949 µM): 0.55% | viability, T/C (second compound 0.1 µM, first compound 0.3 µM): 0.33% | viability, T/C (second compound 0.316 µM, first compound 0.000949 µM): 70.5% | viability, T/C (second compound 0.316 µM, first compound 0.003 µM): 39.5% | viability, T/C (second compound 0.316 µM, first compound 0.00949 µM): 2.17% | viability, T/C (second compound 0.316 µM, first compound 0.03 µM): 2.47% | viability, T/C (second compound 0.316 µM, first compound 0.0949 µM): 0.77% | viability, T/C (second compound 0.316 µM, first compound 0.3 µM): 1.41% | viability, T/C (second compound 1 µM, first compound 0.000949 µM): 2.7% | viability, T/C (second compound 1 µM, first compound 0.003 µM): 0.91% | viability, T/C (second compound 1 µM, first compound 0.00949 µM): 1.02% | viability, T/C (second compound 1 µM, first compound 0.03 µM): 0.56% | viability, T/C (second compound 1 µM, first compound 0.0949 µM): 0.24% | viability, T/C (second compound 1 µM, first compound 0.3 µM): 0.28% | viability, T/C (second compound 3.16 µM, first compound 0.000949 µM): 0.51% | viability, T/C (second compound 3.16 µM, first compound 0.003 µM): 0.34% | viability, T/C (second compound 3.16 µM, first compound 0.00949 µM): 0.26% | viability, T/C (second compound 3.16 µM, first compound 0.03 µM): 0.67% | viability, T/C (second compound 3.16 µM, first compound 0.0949 µM): 0.47% | viability, T/C (second compound 3.16 µM, first compound 0.3 µM): 0.21% | viability, T/C (second compound 10 µM, first compound 0.000949 µM): 0.41% | viability, T/C (second compound 10 µM, first compound 0.003 µM): 1.36% | viability, T/C (second compound 10 µM, first compound 0.00949 µM): 1.47% | viability, T/C (second compound 10 µM, first compound 0.03 µM): 1.13% | viability, T/C (second compound 10 µM, first compound 0.0949 µM): 0.38% | viability, T/C (second compound 10 µM, first compound 0.3 µM): 0.22%

CC1COCCN1c1cc(C2(S(C)(=N)=O)CC2)nc(-c2ccnc3[nH]ccc23)n1 (stereo unspecified) + CN1CCN(c2cc(C(=O)Nc3cc4cc(-c5cnn(C)c5)ccc4cn3)ccn2)CC1
IC50 (second compound 0.0316 µM): > 10 µM | IC50 (second compound 0.1 µM): > 10 µM | IC50 (second compound 0.316 µM): > 10 µM | IC50 (second compound 1 µM): < 0.0316 µM | IC50 (second compound 3.16 µM): < 0.0316 µM | IC50 (second compound 10 µM): < 0.0316 µM | viability, T/C [1]: 103% | viability, T/C [2]: 104% | viability, T/C [3]: 98.1% | viability, T/C [4]: 103% | viability, T/C [5]: 99.2% | viability, T/C [6]: 80.8% | viability, T/C [7]: 102% | viability, T/C [8]: 91.3% | viability, T/C [9]: 83.1% | viability, T/C [10]: 91.7% | viability, T/C [11]: 90.9% | viability, T/C [12]: 71% | viability, T/C [13]: 71.4% | viability, T/C [14]: 70.1% | viability, T/C [15]: 69.3% | viability, T/C [16]: 62.7% | viability, T/C [17]: 66% | viability, T/C [18]: 49.9% | viability, T/C [19]: 6.36% | viability, T/C [20]: 8.03% | viability, T/C [21]: 5.79% | viability, T/C [22]: 5.93% | viability, T/C [23]: 5.27% | viability, T/C [24]: 4.07% | viability, T/C [25]: 1.36% | viability, T/C [26]: 1.15% | viability, T/C [27]: 1.45% | viability, T/C [28]: 0.91% | viability, T/C [29]: 1.03% | viability, T/C [30]: 2.2% | viability, T/C [31]: 1.62% | viability, T/C [32]: 0.34% | viability, T/C [33]: 0.65% | viability, T/C [34]: 0.65% | viability, T/C [35]: 4.11% | viability, T/C [36]: 0.52%

O=C(c1cc(Cc2n[nH]c(=O)c3ccccc23)ccc1F)N1CCN(C(=O)C2CC2)CC1 + CN1CCN(c2cc(C(=O)Nc3cc4cc(-c5cnn(C)c5)ccc4cn3)ccn2)CC1
IC50 (second compound 0.0316 µM): > 10 µM | IC50 (second compound 0.1 µM): > 10 µM | IC50 (second compound 0.316 µM): > 10 µM | IC50 (second compound 1 µM): < 0.0316 µM | IC50 (second compound 3.16 µM): < 0.0316 µM | IC50 (second compound 10 µM): < 0.0316 µM | viability, T/C [1]: 92.9% | viability, T/C [2]: 109% | viability, T/C [3]: 91.9% | viability, T/C [4]: 110% | viability, T/C [5]: 104% | viability, T/C [6]: 100% | viability, T/C [7]: 84.9% | viability, T/C [8]: 97.3% | viability, T/C [9]: 84.6% | viability, T/C [10]: 89.2% | viability, T/C [11]: 92.7% | viability, T/C [12]: 87.8% | viability, T/C [13]: 57.9% | viability, T/C [14]: 65.9% | viability, T/C [15]: 73.4% | viability, T/C [16]: 58.4% | viability, T/C [17]: 67.9% | viability, T/C [18]: 60.4% | viability, T/C [19]: 3.61% | viability, T/C [20]: 4.51% | viability, T/C [21]: 5.54% | viability, T/C [22]: 3.94% | viability, T/C [23]: 3.05% | viability, T/C [24]: 5.36% | viability, T/C [25]: 1.23% | viability, T/C [26]: 1.19% | viability, T/C [27]: 2.64% | viability, T/C [28]: 1% | viability, T/C [29]: 0.92% | viability, T/C [30]: 1.35% | viability, T/C [31]: 0.69% | viability, T/C [32]: 1.28% | viability, T/C [33]: 0.88% | viability, T/C [34]: 2.07% | viability, T/C [35]: 0.54% | viability, T/C [36]: 2.19%
